This passage reports melting point results from patent publication US6987122B2, “2-(1H-indol-3-yl)-2-oxo-acetic acid amides with antitumor activity” (Novuspharma S.p.A., priority 2000, dated 2006).

The term melting point denotes the temperature, or range, at which the solid turns liquid. For `O=C(Nc1nccs1)C(=O)c1cn(Cc2ccc(F)cc2)c2ccccc12`, the melting point lay within 233 to 237 °C.
The compound `O=C(Nc1nncs1)C(=O)c1cn(Cc2ccc(F)cc2)c2ccccc12` returned a melting point of 218 to 220 °C.
